From US5157052A, “Method for inhibiting IgE production” (priority 1990, dated 1992)

Tested on: IgD
Assay: Splenocyte cell surface density/distribution (FACS): IgD
Format: in vivo, mouse (Balb/c female)
Method: One group of 4 unstimulated Balb/c female mice is injected with PBS (Group A). Another (Group B) is injected with 20 μg (±) methyl 11α,16-dihydroxy-16-methyl-9-oxoprosta-5Z,13E-dien-1-oate as in Example 13. […] A 3 cm incision is made with a scalpel above the left hip, and the spleen is cut free from adjoining tissue and placed in a 100 mn plastic culture dish containing 10 ml PBS. The splenic cells are then made into a suspension, by rubbing the spleens between the rough, frosted ends of microscope slides repeatedly until the only remaining particulate matter is connective tissue. Cells are transferred to a 15 ml conical polystyrene tube and centrifuged in a centrifuge at 1200 rpm for 5 minutes. The supernatant is discarded by aspiration and the cell pellet is resuspended in 10 ml PBS, then centrifuged at 1200 rpm for 5 minutes. The supernatant is aspirated and the cell pellet is resuspended in 15 mM Tris, 140 mM Ammonium Chloride, to lyse red blood cells. After incubating at room temperature for 10 minutes the cell suspension is centrifuged at 1200 rpm for 10 minutes. The supernatant is discarded and the cell pellet is resuspended in 10 ml FACS Buffer (PBS containing 0.1% BSA and 0.1% Sodium Azide). The cell suspension is filtered through sterile glass wool plugged in the top of a pasteur pipet. Cells in the flow through are counted using a hemacytometer, then the cell suspension is centrifuged at 1200 rpm for 5 minutes. The supernatant is discarded and the cell pellet is resuspended in a volume of FACS Buffer that will yield 4×10^7 cells/ml. 10 μl (4×10^5 cells) is added to each well of a 96-well V-bottom plate. 25 μl of diluted monoclonal antibody directed against splenocyte cell surface proteins is added to each well: Major Histocompatability Complex (MHC) Class II (M5114, ATCC, Rockville Md.), MHC Class I (M1/42, ATCC), Anti-IgD (JA12.5, ATCC, Rockville, Md.), Thymocyte (Thy)-1 (JIJ, ATCC), B220 (14.8, ATCC), Kappa light chain (187, ATCC), IL-2 Receptor (7D4, ATCC), Lyt-1 (7.313, ATCC) and CD23 (biotinylated B3B4) and incubated on ice for 30 minutes. 100 μl 10% BSA 0.1% sodium azide is added to each well, then the plates are centrifuged at 1200 rpm for 10 minutes. The liquid is removed by aspiration and the cell pellets are resuspended in 100 μl FACS Buffer, and centrifuged at 1200 rpm for 5 minutes. […] Samples are transferred to individual tubes and 10,000 cells are analyzed. Using the Lysis software (Becton Dickinson, Mountain View, Calif.) the mean channel log fluorescence and percent positive cells are determined for the entire cell population. […]

For CCCCC(C)(O)C/C=C/[C@H]1[C@H](O)CC(=O)[C@@H]1C/C=C\CCCC(=O)OC (mixture of isomers) [(±) methyl 11α,16-dihydroxy-16-methyl-9-oxoprosta-5Z,13E-dien-1-oate], the “Percentage Positive Cells” value (anti-IgD stimulated mice, 20 μg days 3 and 4, day 7 (PBS 21.9)) was 15.6 ± 8.4%, the “Mean Channel Log Fluorescence” value (anti-IgD stimulated mice, 20 μg days 3 and 4, day 7 (PBS 107)) was 98 ± 0.5 and the “Mean Channel Log Fluorescence” value (unstimulated mice, 20 μg (PBS 130)) was 132 ± 3.5. For the same compound, the “Percentage Positive Cells” value (unstimulated mice, 20 μg (PBS printed 1.4)) was 51.8 ± 3.7%.
